This is an account of results in patent US11731986B2 (Sanford Burnham Prebys Medical Discovery Institute, priority 2017, dated 2023).

The experiment deals with T1, human LMPTP-A (Homo sapiens, UniProt P24666).
T1 sequence (P24666 1-158): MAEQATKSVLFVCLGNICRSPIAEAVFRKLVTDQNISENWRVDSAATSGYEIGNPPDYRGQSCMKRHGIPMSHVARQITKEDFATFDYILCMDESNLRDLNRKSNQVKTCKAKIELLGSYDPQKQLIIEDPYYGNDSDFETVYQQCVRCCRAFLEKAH
Put plainly: Enzyme Assay of Inhibition of LMPTP-A (phosphatase assay, OMFP or pNPP substrate). It is filed as biochemical. The settings on record: Bis-Tris pH 6.0, 37° C. The protocol: Phosphatase assays were performed in buffer containing 50 mM Bis-Tris, pH 6.0, 1 mM DTT and 0.01% Triton X-100 at 37° C. For assays conducted with 3-O-methylfluorescein phosphate (OMFP) as substrate, fluorescence was monitored continuously at λex=485 and λem=525 nm. For assays conducted with para-nitrophenylphosphate (pNPP) as substrate, the reaction was stopped by addition of 2× reaction volume of 1 M NaOH, and absorbance was measured at 405 nm. IC50 values of compounds of Formula (I), (II), (III), or (IV) were determined from plots of inhibitor concentration versus percentage of enzyme activity. For inhibitor selectivity assays, each PTP was incubated with either 0.4 mM OMFP or 5 mM pNPP in the presence of 40 μM compound or DMSO. […] For the inhibitor reversibility assay, 50 nM human LMPTP-A was pre-incubated with 10 μM of compound of Formula (I), (II), (III), or (IV) or DMSO for 5 min. The enzyme was diluted 100× in phosphatase assay buffer containing 0.4 mM OMFP and fluorescence was measured at the indicated time points.
As for `CN1CCCN(CCNC(=O)/C=C/c2ccc(-c3cc(NCCCN4CCCCC4)c4cnccc4n3)cc2)CC1` [(E)-N-(2-(4-Methyl-1,4-diazepan-1-yl)ethyl)-3-(4-(4-(3-(piperidin-1-yl)propylamino)-1,6-naphthyridin-2-yl)phenyl)acrylamide], the IC50 is no more than 1000 nM.

`CN1CCN(C(=O)c2cc3cc(-c4cc(NCc5ccc(CN6CCCCC6)cc5)c5cnccc5n4)ccc3n2C)CC1` [(1-methyl-5-(4-(4-(piperidin-1-ylmethyl)benzylamino)-1,6-naphthyridin-2-yl)-1H-indol-2-yl)(4-methylpiperazin-1-yl)methanone] yielded an IC50 of no more than 1000 nM.

Consider `CO/N=C(\NC1CCN(C)CC1)c1ccc(-c2cc(NCCCN3CCCCC3)c3cnccc3n2)cc1` [(Z)-N′-methoxy-N-(1-methylpiperidin-4-yl)-4-(4-(3-(piperidin-1-yl)propylamino)-1,6-naphthyridin-2-yl)benzimidamide], for which the IC50 was no more than 1000 nM.

`N#Cc1c(-c2cc(NCCCN3CCCCC3)c3cnccc3n2)ccc2[nH]c(C(=O)NC3CCNCC3)nc12` [4-cyano-5-(4-((3-(piperidin-1-yl)propyl)amino)-1,6-naphthyridin-2-yl)-N-(piperidin-4-yl)-1H-benzo[d]imidazole-2-carboxamide] yielded an IC50 of 1000 to 20000 nM.

The compound `Cn1c(C(=O)NC2CCNCC2)cc2cc(-c3cc(NCCCN4CCCCC4)c4cnccc4n3)ccc21` [1-methyl-5-(4-((3-(piperidin-1-yl)propyl)amino)-1,6-naphthyridin-2-yl)-N-(piperidin-4-yl)-1H-indole-2-carboxamide] came in with an IC50 of no more than 1000 nM.

Turning to “methyl-N-(1-methylpiperidin-4-yl)-5-(4-((3-(piperidin-1-yl)propyl)amino)-1,6-naphthyridin-2-yl)-1H-pyrrolo[3,2-b]pyridine-2-carboxamide”, the IC50 lay within 1000 to 20000 nM.

The compound `CN1CCC(CCNC(=O)CCc2ccc(-c3cc(NCCCN4CCCCC4)c4cnccc4n3)cc2)CC1` [N-(2-(1-Methylpiperidin-4-yl)ethyl)-3-(4-(4-(3-(piperidin-1-yl)propylamino)-1,6-naphthyridin-2-yl)phenyl)propanamide] registered an IC50 of no more than 1000 nM.

`CCN(CC)C(=O)/C=C/c1ccc(-c2cc(NCCCN3CCCCC3)c3cnccc3n2)s1` [(E)-N,N-Diethyl-3-(5-(4-(3-(piperidin-1-yl)propylamino)-1,6-naphthyridin-2-yl)thiophen-2-yl)acrylamide] yielded an IC50 of no less than 20000 nM.

`CN1CCC(NC(=O)c2ccc(-c3cc(NC4CCN(C)CC4)c4cnccc4n3)cc2)CC1` [N-(1-Methylpiperidin-4-yl)-4-(4-((1-methylpiperidin-4-yl)amino)-1,6-naphthyridin-2-yl)benzamide] yielded an IC50 of 1000 to 20000 nM.

Compound `CN1CCN(C(=O)c2cc3ccc(-c4cc(NCCCN5CCCCC5)c5cnccc5n4)cc3s2)CC1` [(4-methylpiperazin-1-yl)(6-(4-(3-(piperidin-1-yl)propylamino)-1,6-naphthyridin-2-yl)benzo[b]thiophen-2-yl)methanone] came in with an IC50 of no more than 1000 nM.

The compound `CN1CCC(NC(=O)c2cc3cc(-c4cc(NC5CCN(C)CC5)c5cnccc5n4)ccc3n2C)CC1` [1-Methyl-N-(1-methylpiperidin-4-yl)-5-(4-((1-methylpiperidin-4-yl)amino)-1,6-naphthyridin-2-yl)-1H-indole-2-carboxamide] returned an IC50 of no more than 1000 nM.

For the compound `CCN1CCC(CNC(=O)CCOc2ccc(-c3cc(N(CC)CCCN4CCCCC4)c4cnccc4n3)cc2)CC1` [3-(4-(4-(ethyl(3-(piperidin-1-yl)propyl)amino)-1,6-naphthyridin-2-yl)phenoxy)-N-((1-ethylpiperidin-4-yl)methyl)propanamide], the IC50 is no less than 20000 nM.

As to `Cn1c(C(=O)NC2CCOCC2)cc2cc(-c3cc(NCCCN4CCCCC4)c4cnccc4n3)ccc21` [1-methyl-5-(4-((3-(piperidin-1-yl)propyl)amino)-1,6-naphthyridin-2-yl)-N-(tetrahydro-2H-pyran-4-yl)-1H-indole-2-carboxamide], the IC50 is no more than 1000 nM.

As to `CN1CCC(NC(=O)c2ccc(-c3cc(NC4CCNCC4)c4cnccc4n3)cc2)CC1` [N-(1-Methylpiperidin-4-yl)-4-(4-(piperidin-4-ylamino)-1,6-naphthyridin-2-yl)benzamide], the IC50 is 1000 to 20000 nM.

`CN1CCCC(CCNC(=O)C#Cc2ccc(-c3cc(NCCCN4CCCCC4)c4cnccc4n3)cc2)CC1` (centres unmarked) registered an IC50 of 1000 to 20000 nM.

The compound `CCN(CC)C(=O)c1ccc(-c2cc(NCCCN3CCOCC3)c3cnccc3n2)cc1` [N,N-Diethyl-4-(4-((3-morpholinopropyl)amino)-1,6-naphthyridin-2-yl)benzamide] gave an IC50 of 1000 to 20000 nM.

With `CN(C)CCNC(=O)/C=C/c1ccc(-c2cc(NCCCN3CCCCC3)c3cnccc3n2)cc1` [(E)-N-(2-(Dimethylamino)ethyl)-3-(4-(4-(3-(piperidin-1-yl)propylamino)-1,6-naphthyridin-2-yl)phenyl)acrylamide], the IC50 was no more than 1000 nM.

Compound `Cc1cncc2c(NCCCN3CCCCC3)cc(-c3ccc(C(=O)NC4CCN(C)CC4)cc3)nc12` [4-(8-Methyl-4-((3-(piperidin-1-yl)propyl)amino)-1,6-naphthyridin-2-yl)-N-(1-methylpiperidin-4-yl)benzamide] had an IC50 of no less than 20000 nM.

`O=C(NC1CCNCC1)c1cc2ccc(-c3cc(NCCCN4CCCCC4)c4cnccc4n3)cc2[nH]1` [6-(4-(3-(Piperidin-1-yl)propylamino)-1,6-naphthyridin-2-yl)-N-(piperidin-4-yl)-1H-indole-2-carboxamide]: the IC50 lay within 1000 to 20000 nM.

Regarding `CN1CCC(CNC(=O)C#Cc2ccc(-c3cc(NCCCN4CCCCC4)c4cnccc4n3)cc2)CC1` [N-((1-methylpiperidin-4-yl)methyl)-3-(4-(4-((3-(piperidin-1-yl)propyl)amino)-1,6-naphthyridin-2-yl)phenyl)propiolamide], the IC50 fell in the range of 1000 to 20000 nM.

Compound `CCN(CC)C(=O)c1ccc(-c2cc(Nc3ccc(N(C)C)cc3)c3cnccc3n2)cc1` [4-(4-(4-(Dimethylamino)phenylamino)-1,6-naphthyridin-2-yl)-N,N-diethylbenzamide] registered an IC50 of 1000 to 20000 nM.

`CN1CCCN(CCNC(=O)COCc2ccc(-c3cc(NCCCN4CCCCC4)c4cnccc4n3)cc2)CC1` [N-(2-(4-methyl-1,4-diazepan-1-yl)ethyl)-2-(4-(4-(3-(piperidin-1-yl)propylamino)-1,6-naphthyridin-2-yl)benzyloxy)acetamide]: the IC50 is no more than 1000 nM.

`CCN(CC)C(=O)c1ccc(-c2cc(NCCN3CCOCC3)c3cnccc3n2)cc1` [N,N-diethyl-4-(4-(2-morpholinoethylamino)-1,6-naphthyridin-2-yl)benzamide] gave an IC50 of 1000 to 20000 nM.

Consider `O=C(NCCCN1CCCCC1)c1ccc(-c2cc(NCc3ccncc3)c3cnccc3n2)cc1` [N-(3-(Piperidin-1-yl)propyl)-4-(4-((pyridin-4-ylmethyl)amino)-1,6-naphthyridin-2-yl)benzamide], for which the IC50 was in the range of 1000 to 20000 nM.

For the compound `CN1CCC(NC(=O)CCOc2ccc(-c3cc(NCCCN4CCCCC4)c4cnccc4n3)cc2)CC1` [N-(1-methylpiperidin-4-yl)-3-(4-(4-((3-(piperidin-1-yl)propyl)amino)-1,6-naphthyridin-2-yl)phenoxy)propanamide], the IC50 was no less than 20000 nM.

As for `CN(C)CCNC(=O)c1cc2ccc(-c3cc(NCCCN4CCCCC4)c4cnccc4n3)cc2[nH]1` [N-(2-(Dimethylamino)ethyl)-6-(4-(3-(piperidin-1-yl)propylamino)-1,6-naphthyridin-2-yl)-1H-indole-2-carboxamide], the IC50 is 1000 to 20000 nM.

In turn, `CNc1cc(-c2ccc3c(c2)cc(C(=O)NC2CCN(C)CC2)n3C)nc2ccncc12` [1-methyl-5-(4-(methylamino)-1,6-naphthyridin-2-yl)-N-(1-methylpiperidin-4-yl)-1H-indole-2-carboxamide] showed an IC50 of 1000 to 20000 nM.

The compound `CCN1CCC(CNC(=O)COCc2ccc(-c3cc(NCCCN4CCCCC4)c4cnccc4n3)cc2)CC1` [N-((1-ethylpiperidin-4-yl)methyl)-2-(4-(4-(3-(piperidin-1-yl)propylamino)-1,6-naphthyridin-2-yl)benzyloxy)acetamide] displayed a half-maximal inhibitory concentration (IC50) of 1000 to 20000 nM.

In turn, `O=C(NCCCN1CCCCC1)c1cc2cc(-c3cc(NCCCN4CCCCC4)c4cnccc4n3)ccc2s1` [N-(3-(piperidin-1-yl)propyl)-5-(4-(3-(piperidin-1-yl)propylamino)-1,6-naphthyridin-2-yl)benzo[b]thiophene-2-carboxamide] displayed an IC50 of 1000 to 20000 nM.

`CN1CCC(CCNC(=O)/C=C/c2ccc(-c3cc(NCCCN4CCCCC4)c4cnccc4n3)cc2)CC1` [(E)-N-(2-(1-Methylpiperidin-4-yl)ethyl)-3-(4-(4-(3-(piperidin-1-yl)propylamino)-1,6-naphthyridin-2-yl)phenyl)acrylamide] yielded an IC50 of no more than 1000 nM.

For `O=C(NC1CCNCC1)c1ccc(-c2cc(NCCCN3CCCCC3)c3cnccc3n2)c(C(F)(F)F)c1` [4-(4-((3-(piperidin-1-yl)propyl)amino)-1,6-naphthyridin-2-yl)-N-(piperidin-4-yl)-3-(trifluoromethyl)benzamide], the IC50 was in the range of 1000 to 20000 nM.

`O=C(NCCCN1CCCCC1)c1ccc(-c2cc(NC3CCOCC3)c3cnccc3n2)cc1` [N-(3-(Piperidin-1-yl)propyl)-4-(4-((tetrahydro-2H-pyran-4-yl)amino)-1,6-naphthyridin-2-yl)benzamide] returned an IC50 of 1000 to 20000 nM.

One may read the IC50 as the concentration needed to halve the response being measured.
